Paper PMC5392334, “Discovery and characterization of a novel irreversible EGFR mutants selective and potent kinase inhibitor CHMFL-EGFR-26 with a distinct binding mode” (Oncotarget, 2017)

Assays:
[1] = target: T1, AMPK-alpha2 (Homo sapiens, UniProt P54646); assay: KinomeScan; type: binding; settings: read-out: % control
T1 construct: purchased DiscoveRx KINOMEscan

[2] = target: T2, EPHB1 (Homo sapiens, UniProt P54762); assay: KinomeScan; type: binding; settings: read-out: % control
T2 construct: purchased DiscoveRx KINOMEscan

[3] = target: T3, MAP3K2 (Homo sapiens, UniProt Q9Y2U5); assay: KinomeScan; type: binding; settings: read-out: % control
T3 construct: purchased DiscoveRx KINOMEscan

[4] = target: T4, IRAK1 (Homo sapiens, UniProt P51617); assay: KinomeScan; type: binding; settings: read-out: % control
T4 construct: purchased DiscoveRx KINOMEscan

[5] = target: T5, ACVR1 (Homo sapiens, UniProt Q04771); assay: KinomeScan; type: binding; settings: read-out: % control
T5 construct: purchased DiscoveRx KINOMEscan

[6] = target: T6, PKAC-beta (Homo sapiens, UniProt P22694); assay: KinomeScan; type: binding; settings: read-out: % control
T6 construct: purchased DiscoveRx KINOMEscan

[7] = target: T7, PKN1 (Homo sapiens, UniProt Q16512); assay: KinomeScan; type: binding; settings: read-out: % control
T7 construct: purchased DiscoveRx KINOMEscan

[8] = target: T8, TRPM6 (Homo sapiens, UniProt Q9BX84); assay: KinomeScan; type: binding; settings: read-out: % control
T8 construct: purchased DiscoveRx KINOMEscan

[9] = target: T9, MYO3B (Homo sapiens, UniProt Q8WXR4); assay: KinomeScan; type: binding; settings: read-out: % control
T9 construct: purchased DiscoveRx KINOMEscan

[10] = target: T10, NDR1 (Homo sapiens, UniProt Q15208); assay: KinomeScan; type: binding; settings: read-out: % control
T10 construct: purchased DiscoveRx KINOMEscan

[11] = target: T11, ABL1(F317L)-nonphosphorylated (Homo sapiens, UniProt P00519, F317L); assay: KinomeScan; type: binding; settings: read-out: % control
T11 construct: purchased DiscoveRx KINOMEscan

[12] = target: T12, EGFR(L858R,T790M) (Homo sapiens, UniProt P00533, L858R/T790M); assay: KinomeScan; type: binding; settings: read-out: % control
T12 construct: purchased DiscoveRx KINOMEscan

[13] = tested on: BaF3-FL-EGFR-del19-T790M; assay: Anti-proliferation, BaF3 isogenic cell lines (CellTiter-Glo); type: cell-based; settings: Mus musculus, 72 hours, triplet testing
[14] = target: T13, PDGFRB (Homo sapiens, UniProt P09619); assay: KinomeScan; type: binding; settings: read-out: % control
T13 construct: purchased DiscoveRx KINOMEscan

[15] = target: T14, FLT3(D835V) (Homo sapiens, UniProt P36888, D835V); assay: KinomeScan; type: binding; settings: read-out: % control
T14 construct: purchased DiscoveRx KINOMEscan

[16] = target: T15, TSSK1B (Homo sapiens, UniProt Q9BXA7); assay: KinomeScan; type: binding; settings: read-out: % control
T15 construct: purchased DiscoveRx KINOMEscan

[17] = target: T16, MAP3K1 (Homo sapiens, UniProt Q13233); assay: KinomeScan; type: binding; settings: read-out: % control
T16 construct: purchased DiscoveRx KINOMEscan

[18] = target: T17, ERBB3 (Homo sapiens, UniProt P21860); assay: KinomeScan; type: binding; settings: read-out: % control
T17 construct: purchased DiscoveRx KINOMEscan

[19] = target: T18, FGFR3 (Homo sapiens, UniProt P22607); assay: KinomeScan; type: binding; settings: read-out: % control
T18 construct: purchased DiscoveRx KINOMEscan

[20] = target: T19, CSNK1G3 (Homo sapiens, UniProt Q9Y6M4); assay: KinomeScan; type: binding; settings: read-out: % control
T19 construct: purchased DiscoveRx KINOMEscan

[21] = target: T20, GRK2 (Homo sapiens, UniProt P25098); assay: KinomeScan; type: binding; settings: read-out: % control
T20 construct: purchased DiscoveRx KINOMEscan

[22] = target: T21, HUNK (Homo sapiens, UniProt P57058); assay: KinomeScan; type: binding; settings: read-out: % control
T21 construct: purchased DiscoveRx KINOMEscan

[23] = target: T22, RIOK3 (Homo sapiens, UniProt O14730); assay: KinomeScan; type: binding; settings: read-out: % control
T22 construct: purchased DiscoveRx KINOMEscan

[24] = target: T23, KIT(V559D) (Homo sapiens, UniProt P10721, V559D); assay: KinomeScan; type: binding; settings: read-out: % control
T23 construct: purchased DiscoveRx KINOMEscan

[25] = target: T24, RET(V804L) (Homo sapiens, UniProt P07949, V804L); assay: KinomeScan; type: binding; settings: read-out: % control
T24 construct: purchased DiscoveRx KINOMEscan

[26] = target: T25, PIKFYVE (Homo sapiens, UniProt Q9Y2I7); assay: KinomeScan; type: binding; settings: read-out: % control
T25 construct: purchased DiscoveRx KINOMEscan

[27] = target: T26, CSNK2A2 (Homo sapiens, UniProt P19784); assay: KinomeScan; type: binding; settings: read-out: % control
T26 construct: purchased DiscoveRx KINOMEscan

[28] = tested on: BaF3-TEL-EGFR-T790M-C797S; assay: Anti-proliferation, BaF3 isogenic cell lines (CellTiter-Glo); type: cell-based; settings: Mus musculus, 72 hours, triplet testing
[29] = target: T27, ERK1 (Homo sapiens, UniProt P27361); assay: KinomeScan; type: binding; settings: read-out: % control
T27 construct: purchased DiscoveRx KINOMEscan

[30] = target: T28, JAK1(JH1domain-catalytic) (Homo sapiens, UniProt P23458); assay: KinomeScan; type: binding; settings: read-out: % control
T28 construct: JAK1(JH1domain-catalytic); purchased DiscoveRx KINOMEscan

[31] = target: T29, TYRO3 (Homo sapiens, UniProt Q06418); assay: KinomeScan; type: binding; settings: read-out: % control
T29 construct: purchased DiscoveRx KINOMEscan

[32] = target: T30, MLK1 (Homo sapiens, UniProt P80192); assay: KinomeScan; type: binding; settings: read-out: % control
T30 construct: purchased DiscoveRx KINOMEscan

[33] = target: T31, DDR1 (Homo sapiens, UniProt Q08345); assay: KinomeScan; type: binding; settings: read-out: % control
T31 construct: purchased DiscoveRx KINOMEscan

[34] = tested on: CHL; assay: Anti-proliferation, normal cells (CellTiter-Glo); settings: Cricetulus griseus, 72 h
Method: Cells were grown in 96-well culture plates (2500-3000/well). For adherent cell lines, compounds of various concentrations were added into the plates after cells were cultured for 12 hours. Cell proliferation was determined after treatment with compounds for 72 hours. Cell viability was measured using the CellTiter–Glo assay (Promega, USA) according to the manufacturer's instructions, and luminescence was measured in a multi-label reader (Envision, PerkinElmer, USA). Data were normalized to control groups (DMSO) and represented by the mean of three independent measurements with standard error <20%. GI50 values were calculated using Prism 5.0 (GraphPad Software, San Diego, CA).

[35] = target: T32, ACVRL1 (Homo sapiens, UniProt P37023); assay: KinomeScan; type: binding; settings: read-out: % control
T32 construct: purchased DiscoveRx KINOMEscan

[36] = target: T33, ABL2 (Homo sapiens, UniProt P42684); assay: KinomeScan; type: binding; settings: read-out: % control
T33 construct: purchased DiscoveRx KINOMEscan

[37] = target: T34, RIPK1 (Homo sapiens, UniProt Q13546); assay: KinomeScan; type: binding; settings: read-out: % control
T34 construct: purchased DiscoveRx KINOMEscan

[38] = target: T35, AKT3 (Homo sapiens, UniProt Q9Y243); assay: KinomeScan; type: binding; settings: read-out: % control
T35 construct: purchased DiscoveRx KINOMEscan

[39] = target: T36, MYLK2 (Homo sapiens, UniProt Q9H1R3); assay: KinomeScan; type: binding; settings: read-out: % control
T36 construct: purchased DiscoveRx KINOMEscan

[40] = target: T37, MKK7 (Homo sapiens, UniProt O14733); assay: KinomeScan; type: binding; settings: read-out: % control
T37 construct: purchased DiscoveRx KINOMEscan

[41] = target: T38, CDKL2 (Homo sapiens, UniProt Q92772); assay: KinomeScan; type: binding; settings: read-out: % control
T38 construct: purchased DiscoveRx KINOMEscan

[42] = target: T39, PIP5K2B (Homo sapiens, UniProt P78356); assay: KinomeScan; type: binding; settings: read-out: % control
T39 construct: purchased DiscoveRx KINOMEscan

[43] = target: T40, DMPK2 (Homo sapiens, UniProt Q6DT37); assay: KinomeScan; type: binding; settings: read-out: % control
T40 construct: purchased DiscoveRx KINOMEscan

T8 sequence (Q9BX84 whole entry): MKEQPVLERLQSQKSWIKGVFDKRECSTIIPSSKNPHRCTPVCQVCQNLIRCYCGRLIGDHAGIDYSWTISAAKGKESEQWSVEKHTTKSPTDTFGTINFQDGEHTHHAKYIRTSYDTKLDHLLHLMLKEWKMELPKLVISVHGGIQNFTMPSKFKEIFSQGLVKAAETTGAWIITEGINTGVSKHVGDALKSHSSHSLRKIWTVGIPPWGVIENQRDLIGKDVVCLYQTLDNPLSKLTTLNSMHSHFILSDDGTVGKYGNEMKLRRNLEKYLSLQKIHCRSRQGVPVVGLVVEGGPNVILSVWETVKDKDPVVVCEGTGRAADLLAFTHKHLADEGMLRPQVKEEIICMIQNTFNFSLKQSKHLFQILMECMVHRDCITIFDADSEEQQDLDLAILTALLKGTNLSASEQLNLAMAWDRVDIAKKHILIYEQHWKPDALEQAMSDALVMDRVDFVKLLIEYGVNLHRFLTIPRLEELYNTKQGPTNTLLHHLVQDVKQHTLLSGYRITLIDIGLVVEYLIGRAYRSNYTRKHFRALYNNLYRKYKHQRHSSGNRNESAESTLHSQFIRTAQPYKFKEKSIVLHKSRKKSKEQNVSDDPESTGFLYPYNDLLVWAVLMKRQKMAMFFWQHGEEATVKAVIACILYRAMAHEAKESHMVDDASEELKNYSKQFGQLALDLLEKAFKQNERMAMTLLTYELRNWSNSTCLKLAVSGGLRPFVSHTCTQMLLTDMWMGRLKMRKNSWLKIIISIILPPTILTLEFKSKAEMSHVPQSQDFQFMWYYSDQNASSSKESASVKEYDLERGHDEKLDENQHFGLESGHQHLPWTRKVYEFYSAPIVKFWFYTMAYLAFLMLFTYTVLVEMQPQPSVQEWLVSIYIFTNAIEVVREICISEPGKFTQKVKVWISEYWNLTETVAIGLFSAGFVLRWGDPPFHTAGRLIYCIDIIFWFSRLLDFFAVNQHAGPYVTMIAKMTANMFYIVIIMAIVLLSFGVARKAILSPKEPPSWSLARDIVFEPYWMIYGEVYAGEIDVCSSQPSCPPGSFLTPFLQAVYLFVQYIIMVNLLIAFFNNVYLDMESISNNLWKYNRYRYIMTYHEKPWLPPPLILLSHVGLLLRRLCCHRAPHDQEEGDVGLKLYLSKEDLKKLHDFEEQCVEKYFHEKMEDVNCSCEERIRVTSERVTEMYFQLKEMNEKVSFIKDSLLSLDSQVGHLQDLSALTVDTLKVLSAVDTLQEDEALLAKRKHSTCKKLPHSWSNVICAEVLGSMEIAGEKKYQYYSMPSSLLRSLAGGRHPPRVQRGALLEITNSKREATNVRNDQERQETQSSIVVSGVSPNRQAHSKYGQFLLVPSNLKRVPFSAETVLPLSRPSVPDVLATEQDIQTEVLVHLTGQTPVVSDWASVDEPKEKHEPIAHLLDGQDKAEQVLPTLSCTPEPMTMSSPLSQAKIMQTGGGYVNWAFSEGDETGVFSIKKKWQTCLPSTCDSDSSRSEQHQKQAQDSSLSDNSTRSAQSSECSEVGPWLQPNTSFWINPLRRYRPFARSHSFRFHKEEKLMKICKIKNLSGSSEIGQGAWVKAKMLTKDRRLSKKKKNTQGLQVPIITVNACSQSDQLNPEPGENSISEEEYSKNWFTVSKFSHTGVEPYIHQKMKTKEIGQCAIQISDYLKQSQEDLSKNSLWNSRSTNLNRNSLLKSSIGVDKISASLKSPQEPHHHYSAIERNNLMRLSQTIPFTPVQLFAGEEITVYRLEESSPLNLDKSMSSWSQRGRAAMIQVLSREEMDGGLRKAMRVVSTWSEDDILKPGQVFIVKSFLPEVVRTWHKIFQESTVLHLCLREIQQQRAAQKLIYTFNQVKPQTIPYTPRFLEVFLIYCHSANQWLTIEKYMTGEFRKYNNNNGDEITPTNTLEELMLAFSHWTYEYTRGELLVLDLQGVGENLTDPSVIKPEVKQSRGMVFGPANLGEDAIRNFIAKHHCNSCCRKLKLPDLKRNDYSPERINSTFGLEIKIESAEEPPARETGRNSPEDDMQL
T26 sequence (P19784 whole entry): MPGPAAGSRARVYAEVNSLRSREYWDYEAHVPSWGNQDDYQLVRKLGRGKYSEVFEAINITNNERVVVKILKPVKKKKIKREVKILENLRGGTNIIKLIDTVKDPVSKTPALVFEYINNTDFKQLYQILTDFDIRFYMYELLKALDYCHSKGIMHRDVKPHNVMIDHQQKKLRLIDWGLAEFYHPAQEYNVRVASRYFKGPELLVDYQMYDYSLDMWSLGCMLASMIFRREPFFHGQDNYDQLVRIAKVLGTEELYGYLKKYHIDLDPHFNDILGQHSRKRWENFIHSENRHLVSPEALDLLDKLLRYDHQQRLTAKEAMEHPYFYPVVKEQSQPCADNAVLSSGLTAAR
T29 sequence (Q06418 41-890): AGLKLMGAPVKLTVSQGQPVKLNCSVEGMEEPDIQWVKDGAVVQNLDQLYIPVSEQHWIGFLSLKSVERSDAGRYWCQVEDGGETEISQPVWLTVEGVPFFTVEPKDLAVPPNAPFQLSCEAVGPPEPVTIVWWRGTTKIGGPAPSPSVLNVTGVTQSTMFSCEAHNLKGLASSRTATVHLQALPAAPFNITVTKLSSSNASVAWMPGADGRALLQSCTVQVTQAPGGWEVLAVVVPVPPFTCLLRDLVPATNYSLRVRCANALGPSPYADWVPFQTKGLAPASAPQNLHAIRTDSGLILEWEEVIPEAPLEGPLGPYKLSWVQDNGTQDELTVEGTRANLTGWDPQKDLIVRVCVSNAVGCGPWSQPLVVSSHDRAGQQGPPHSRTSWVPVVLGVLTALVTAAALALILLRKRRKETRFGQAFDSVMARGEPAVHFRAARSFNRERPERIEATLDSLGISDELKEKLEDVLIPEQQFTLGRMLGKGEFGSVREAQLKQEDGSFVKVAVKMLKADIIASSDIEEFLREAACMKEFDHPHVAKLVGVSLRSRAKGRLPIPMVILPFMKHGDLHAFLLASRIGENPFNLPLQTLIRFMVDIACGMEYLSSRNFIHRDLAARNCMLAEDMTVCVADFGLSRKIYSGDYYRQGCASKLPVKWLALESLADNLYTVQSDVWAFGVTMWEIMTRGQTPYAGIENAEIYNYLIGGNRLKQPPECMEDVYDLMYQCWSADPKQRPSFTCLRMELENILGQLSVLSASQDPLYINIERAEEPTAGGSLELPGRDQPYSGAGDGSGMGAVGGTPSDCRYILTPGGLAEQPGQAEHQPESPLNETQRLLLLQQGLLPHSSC
T20 sequence (P25098 whole entry): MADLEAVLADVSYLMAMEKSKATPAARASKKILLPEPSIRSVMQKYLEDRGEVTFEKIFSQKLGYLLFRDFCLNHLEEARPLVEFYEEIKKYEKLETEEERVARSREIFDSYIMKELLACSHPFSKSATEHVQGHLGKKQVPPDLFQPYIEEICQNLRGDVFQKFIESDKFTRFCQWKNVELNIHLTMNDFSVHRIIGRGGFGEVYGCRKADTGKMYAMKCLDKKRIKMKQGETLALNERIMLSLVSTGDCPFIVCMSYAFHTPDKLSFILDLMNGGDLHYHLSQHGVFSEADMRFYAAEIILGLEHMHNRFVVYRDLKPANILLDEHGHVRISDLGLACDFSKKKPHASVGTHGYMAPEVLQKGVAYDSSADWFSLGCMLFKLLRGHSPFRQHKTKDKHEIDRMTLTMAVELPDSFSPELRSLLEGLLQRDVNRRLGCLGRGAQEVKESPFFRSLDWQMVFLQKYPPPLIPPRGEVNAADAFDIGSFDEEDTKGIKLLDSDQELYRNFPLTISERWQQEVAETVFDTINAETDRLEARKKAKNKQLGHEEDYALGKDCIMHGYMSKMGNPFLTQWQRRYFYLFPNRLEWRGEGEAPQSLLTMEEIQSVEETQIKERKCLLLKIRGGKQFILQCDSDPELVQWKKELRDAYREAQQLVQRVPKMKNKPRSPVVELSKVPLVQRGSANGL
T38 sequence (Q92772 whole entry): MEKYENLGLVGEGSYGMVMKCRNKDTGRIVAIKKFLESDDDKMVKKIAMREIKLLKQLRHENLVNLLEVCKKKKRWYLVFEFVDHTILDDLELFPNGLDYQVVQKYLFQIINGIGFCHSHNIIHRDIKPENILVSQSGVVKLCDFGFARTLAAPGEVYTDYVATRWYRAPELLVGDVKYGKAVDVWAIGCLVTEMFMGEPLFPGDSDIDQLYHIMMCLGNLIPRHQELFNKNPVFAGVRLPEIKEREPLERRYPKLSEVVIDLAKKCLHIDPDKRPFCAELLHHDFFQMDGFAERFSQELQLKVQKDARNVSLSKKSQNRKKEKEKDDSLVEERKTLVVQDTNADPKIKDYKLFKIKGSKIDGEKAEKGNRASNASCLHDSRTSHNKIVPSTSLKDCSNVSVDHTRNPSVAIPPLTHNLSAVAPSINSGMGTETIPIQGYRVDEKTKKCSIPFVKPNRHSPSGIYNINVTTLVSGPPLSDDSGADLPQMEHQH
T22 sequence (O14730 whole entry): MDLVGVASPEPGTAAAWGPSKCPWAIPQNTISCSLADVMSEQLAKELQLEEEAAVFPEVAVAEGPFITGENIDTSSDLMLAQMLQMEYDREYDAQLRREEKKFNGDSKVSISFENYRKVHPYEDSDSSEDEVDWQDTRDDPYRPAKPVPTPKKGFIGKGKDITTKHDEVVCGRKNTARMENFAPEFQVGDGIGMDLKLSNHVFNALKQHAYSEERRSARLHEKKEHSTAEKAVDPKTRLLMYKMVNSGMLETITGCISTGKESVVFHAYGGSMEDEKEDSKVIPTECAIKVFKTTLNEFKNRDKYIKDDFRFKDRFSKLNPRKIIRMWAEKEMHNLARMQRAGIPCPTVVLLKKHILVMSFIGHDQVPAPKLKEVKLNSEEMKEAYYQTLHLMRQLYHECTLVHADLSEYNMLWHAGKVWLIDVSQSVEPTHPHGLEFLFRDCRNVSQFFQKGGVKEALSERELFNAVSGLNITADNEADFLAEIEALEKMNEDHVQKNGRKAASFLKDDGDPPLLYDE

C=CC(=O)N1CCC[C@@H](n2nc(-c3ccc(OCc4cccc(C)n4)c(Cl)c3)c3c(N)ncnc32)C1 [CHMFL-EGFR-26]
remaining binding at 1 µM [1]: 90% | remaining binding at 1 µM [2]: 96% | remaining binding at 1 µM [3]: 52% | remaining binding at 1 µM [4]: 100% | remaining binding at 1 µM [5]: 96% | remaining binding at 1 µM [6]: 14% | remaining binding at 1 µM [7]: 99% | remaining binding at 1 µM [8]: 100% | remaining binding at 1 µM [9]: 98% | remaining binding at 1 µM [10]: 71% | remaining binding at 1 µM [11]: 100% | remaining binding at 1 µM [12]: 2.8% | GI50 [13]: < 0.0003 µM | remaining binding at 1 µM [14]: 94% | remaining binding at 1 µM [15]: 70% | remaining binding at 1 µM [16]: 89% | remaining binding at 1 µM [17]: 82% | remaining binding at 1 µM [18]: 89% | remaining binding at 1 µM [19]: 100% | remaining binding at 1 µM [20]: 98% | remaining binding at 1 µM [21]: 99% | remaining binding at 1 µM [22]: 72% | remaining binding at 1 µM [23]: 82% | remaining binding at 1 µM [24]: 100% | remaining binding at 1 µM [25]: 100% | remaining binding at 1 µM [26]: 75% | remaining binding at 1 µM [27]: 91% | GI50 [28]: 3.7 µM | remaining binding at 1 µM [29]: 91% | remaining binding at 1 µM [30]: 91% | remaining binding at 1 µM [31]: 53% | remaining binding at 1 µM [32]: 99% | remaining binding at 1 µM [33]: 85% | GI50 [34]: > 10 µM | remaining binding at 1 µM [35]: 100% | remaining binding at 1 µM [36]: 99% | remaining binding at 1 µM [37]: 100% | remaining binding at 1 µM [38]: 59% | remaining binding at 1 µM [39]: 100% | remaining binding at 1 µM [40]: 2.5% | remaining binding at 1 µM [41]: 100% | remaining binding at 1 µM [42]: 100% | remaining binding at 1 µM [43]: 28%
